Reference: US11571411B2, “Use of a bisamide derivative of malonic acid for treating allergic and other diseases in humans and animals” (PHARMENTERPRISES ALLERGY LLC, priority 2018, dated 2023)

Tested on: histamine-induced nasal congestion model
Experiment: Histamine-induced nasal congestion model in dogs, oral administration
Format: in vivo, Beagle dogs
Protocol: A histamine-induced nasal congestion model in dogs was performed according to the standard procedure [Tiniakov R. L., Tiniakova O. P., McLeod R. L., Hey J. A., Yeates D. B. Canine model of nasal congestion and allergic rhinitis//J Appl Physiol. 2003. V.94(5). P.1821-1828]. Beagle dogs were injected in the nasal cavity with a 5% histamine solution in a volume of 250 μl/nostril. The volume of the nasal cavity of the right and left nostrils was measured using a rhinometer before and 5, 10, 15, 20, 30, 40, 50 and 60 minutes after administration of histamine. Three experiments were performed, in which Compound I was administered orally once at different times: 1) 30 minutes before administration of histamine; 2) 1 hour before administration of histamine; and 3) 6 hours before administration of histamine, and one experiment was performed, in which Compound I was administered orally once daily for 14 days, the last administration was carried out 1 hour before administration of histamine.

[1] = oral 6 hours before histamine, 0.54 mg/kg, 40 minutes after histamine
[2] = oral 6 hours before histamine, 0.54 mg/kg, 50 minutes after histamine
[3] = oral 6 hours before histamine, 0.54 mg/kg, 60 minutes after histamine
[4] = oral 6 hours before histamine, 0.54 mg/kg, before histamine administration
[5] = oral for 14 days, 0.13 mg/kg, 5 minutes after histamine
[6] = oral for 14 days, 0.13 mg/kg, 10 minutes after histamine
[7] = oral for 14 days, 0.13 mg/kg, 15 minutes after histamine
[8] = oral for 14 days, 0.13 mg/kg, 20 minutes after histamine
[9] = oral for 14 days, 0.13 mg/kg, 30 minutes after histamine
[10] = oral for 14 days, 0.13 mg/kg, 40 minutes after histamine
[11] = oral for 14 days, 0.13 mg/kg, before histamine administration
[12] = oral for 14 days, 0.27 mg/kg, 5 minutes after histamine
[13] = oral for 14 days, 0.27 mg/kg, 10 minutes after histamine
[14] = oral for 14 days, 0.27 mg/kg, 15 minutes after histamine
[15] = oral for 14 days, 0.27 mg/kg, 20 minutes after histamine
[16] = oral for 14 days, 0.27 mg/kg, 30 minutes after histamine
[17] = oral for 14 days, 0.27 mg/kg, 40 minutes after histamine
[18] = oral for 14 days, 0.27 mg/kg, before histamine administration
[19] = oral for 14 days, 0.54 mg/kg, 5 minutes after histamine
[20] = oral for 14 days, 0.54 mg/kg, 10 minutes after histamine
[21] = oral for 14 days, 0.54 mg/kg, 15 minutes after histamine
[22] = oral for 14 days, 0.54 mg/kg, 20 minutes after histamine
[23] = oral for 14 days, 0.54 mg/kg, before histamine administration
[24] = oral once 30 minutes before histamine, 0.005 mg/kg, 5 minutes after histamine
[25] = oral once 30 minutes before histamine, 0.005 mg/kg, 10 minutes after histamine
[26] = oral once 30 minutes before histamine, 0.005 mg/kg, 15 minutes after histamine
[27] = oral once 30 minutes before histamine, 0.005 mg/kg, 20 minutes after histamine
[28] = oral once 30 minutes before histamine, 0.005 mg/kg, 30 minutes after histamine
[29] = oral once 30 minutes before histamine, 0.005 mg/kg, 40 minutes after histamine
[30] = oral once 30 minutes before histamine, 0.005 mg/kg, 50 minutes after histamine
[31] = oral once 30 minutes before histamine, 0.005 mg/kg, 60 minutes after histamine
[32] = oral once 30 minutes before histamine, 0.005 mg/kg, before histamine administration
[33] = oral once 30 minutes before histamine, 0.05 mg/kg, 5 minutes after histamine
[34] = oral once 30 minutes before histamine, 0.05 mg/kg, 10 minutes after histamine
[35] = oral once 30 minutes before histamine, 0.05 mg/kg, 15 minutes after histamine
[36] = oral once 30 minutes before histamine, 0.05 mg/kg, 20 minutes after histamine
[37] = oral once 30 minutes before histamine, 0.05 mg/kg, 30 minutes after histamine
[38] = oral once 30 minutes before histamine, 0.05 mg/kg, 40 minutes after histamine
[39] = oral once 30 minutes before histamine, 0.05 mg/kg, 50 minutes after histamine
[40] = oral once 30 minutes before histamine, 0.05 mg/kg, 60 minutes after histamine
[41] = oral once 30 minutes before histamine, 0.05 mg/kg, before histamine administration
[42] = oral once 30 minutes before histamine, 0.54 mg/kg, 5 minutes after histamine
[43] = oral once 30 minutes before histamine, 0.54 mg/kg, 10 minutes after histamine
[44] = oral once 30 minutes before histamine, 0.54 mg/kg, 15 minutes after histamine
[45] = oral once 30 minutes before histamine, 0.54 mg/kg, 20 minutes after histamine
[46] = oral once 30 minutes before histamine, 0.54 mg/kg, 30 minutes after histamine
[47] = oral once 30 minutes before histamine, 0.54 mg/kg, 40 minutes after histamine
[48] = oral once 30 minutes before histamine, 0.54 mg/kg, 50 minutes after histamine
[49] = oral once 30 minutes before histamine, 0.54 mg/kg, 60 minutes after histamine
[50] = oral once 30 minutes before histamine, 0.54 mg/kg, before histamine administration

With `O=C(CC(=O)NCCc1cnc[nH]1)NCCc1cnc[nH]1` [Compound I, N,N′-bis(2-(1H-imidazol-5-yl)ethyl)malonamide] the “Volume of the nasal cavity, left nostril” value [1] was 3.5 ± 0.1$ cm^3, the “Volume of the nasal cavity, right nostril” value (shortened to “Volume … right nostril”) [1] was 3.5 ± 0.1$ cm^3 and the “Volume of the nasal cavity, left nostril” value [2] was 2.9 ± 0.1$ cm^3. For the same compound, the “Volume … right nostril” value [2] was 2.9 ± 0.2$ cm^3, the “Volume of the nasal cavity, left nostril” value [3] was 2.9 ± 0.1$ cm^3 and the “Volume … right nostril” value [3] was 3.0 ± 0.1$ cm^3. The “Volume of the nasal cavity, left nostril” value [4] was 4.1 ± 0.2 cm^3, the “Volume … right nostril” value [4] was 4.1 ± 0.2 cm^3 and the “Volume of the nasal cavity, left nostril” value [5] was 2.7 ± 0.2$ cm^3. For the same compound, the “Volume … right nostril” value [5] was 2.7 ± 0.2$ cm^3, the “Volume of the nasal cavity, left nostril” value [6] was 3.2 ± 0.2*$ cm^3 and the “Volume … right nostril” value [6] was 3.3 ± 0.2*$ cm^3. The “Volume of the nasal cavity, left nostril” value [7] was 2.5 ± 0.2*$ cm^3, the “Volume … right nostril” value [7] was 2.5 ± 0.1*$ cm^3 and the “Volume of the nasal cavity, left nostril” value [8] was 2.4 ± 0.2*$ cm^3. The “Volume … right nostril” value [8] was 2.4 ± 0.2*$ cm^3, the “Volume of the nasal cavity, left nostril” value [9] was 3.2 ± 0.2*$ cm^3 and the “Volume … right nostril” value [9] was 3.2 ± 0.2*$ cm^3. The “Volume of the nasal cavity, left nostril” value [10] was 3.6 ± 0.2*$ cm^3, the “Volume … right nostril” value [10] was 3.6 ± 0.2$ cm^3 and the “Volume of the nasal cavity, left nostril” value [11] was 4.5 ± 0.1 cm^3. For the same compound, the “Volume … right nostril” value [11] was 4.5 ± 0.1 cm^3, the “Volume of the nasal cavity, left nostril” value [12] was 2.8 ± 0.2$ cm^3 and the “Volume … right nostril” value [12] was 2.7 ± 0.2$ cm^3. For the same compound, the “Volume of the nasal cavity, left nostril” value [13] was 3.6 ± 0.2*$ cm^3, the “Volume … right nostril” value [13] was 3.6 ± 0.2*$ cm^3 and the “Volume of the nasal cavity, left nostril” value [14] was 2.8 ± 0.3*$ cm^3. For the same compound, the “Volume … right nostril” value [14] was 2.8 ± 0.2*$ cm^3, the “Volume of the nasal cavity, left nostril” value [15] was 2.7 ± 0.1*$ cm^3 and the “Volume … right nostril” value [15] was 2.7 ± 0.2*$ cm^3. For the same compound, the “Volume of the nasal cavity, left nostril” value [16] was 3.3 ± 0.2*$ cm^3, the “Volume … right nostril” value [16] was 3.3 ± 0.1*$ cm^3 and the “Volume of the nasal cavity, left nostril” value [17] was 3.8 ± 0.2*$ cm^3. For the same compound, the “Volume … right nostril” value [17] was 3.8 ± 0.2*$ cm^3, the “Volume of the nasal cavity, left nostril” value [18] was 4.5 ± 0.2 cm^3 and the “Volume … right nostril” value [18] was 4.5 ± 0.1 cm^3. For the same compound, the “Volume of the nasal cavity, left nostril” value [19] was 3.1 ± 0.3$ cm^3, the “Volume … right nostril” value [19] was 2.7 ± 0.2$ cm^3 and the “Volume of the nasal cavity, left nostril” value [20] was 3.4 ± 0.2*$ cm^3. For the same compound, the “Volume … right nostril” value [20] was 3.4 ± 0.1*$ cm^3, the “Volume of the nasal cavity, left nostril” value [21] was 2.6 ± 0.1*$ cm^3 and the “Volume … right nostril” value [21] was 2.6 ± 0.1*$ cm^3. For the same compound, the “Volume of the nasal cavity, left nostril” value [22] was 2.5 ± 0.2*$ cm^3, the “Volume … right nostril” value [22] was 2.5 ± 0.2*$ cm^3 and the “Volume of the nasal cavity, left nostril” value [23] was 4.4 ± 0.1 cm^3. The “Volume … right nostril” value [23] was 4.5 ± 0.1 cm^3, the “Volume of the nasal cavity, left nostril” value [24] was 3.5 ± 0.2$ cm^3 and the “Volume … right nostril” value [24] was 3.4 ± 0.1$ cm^3. For the same compound, the “Volume of the nasal cavity, left nostril” value [25] was 2.6 ± 0.2$ cm^3, the “Volume … right nostril” value [25] was 2.5 ± 0.2$ cm^3 and the “Volume of the nasal cavity, left nostril” value [26] was 2.2 ± 0.2$^ cm^3. The “Volume … right nostril” value [26] was 2.1 ± 0.2$^ cm^3, the “Volume of the nasal cavity, left nostril” value [27] was 1.9 ± 0.3 cm^3 and the “Volume … right nostril” value [27] was 2.0 ± 0.2$^ cm^3. The “Volume of the nasal cavity, left nostril” value [28] was 2.5 ± 0.1&$ cm^3, the “Volume … right nostril” value [28] was 2.8 ± 0.2&$ cm^3 and the “Volume of the nasal cavity, left nostril” value [29] was 3.9 ± 0.1& cm^3. For the same compound, the “Volume … right nostril” value [29] was 3.8 ± 0.2& cm^3, the “Volume of the nasal cavity, left nostril” value [30] was 3.9 ± 0.1& cm^3 and the “Volume … right nostril” value [30] was 4.0 ± 0.2& cm^3. The “Volume of the nasal cavity, left nostril” value [31] was 4.0 ± 0.1 cm^3, the “Volume … right nostril” value [31] was 3.5 ± 0.1$ cm^3 and the “Volume of the nasal cavity, left nostril” value [32] was 4.3 ± 0.3 cm^3. For the same compound, the “Volume … right nostril” value [32] was 4.6 ± 0.3 cm^3, the “Volume of the nasal cavity, left nostril” value [33] was 3.4 ± 0.1$ cm^3 and the “Volume … right nostril” value [33] was 3.3 ± 0.2$ cm^3. The “Volume of the nasal cavity, left nostril” value [34] was 2.5 ± 0.1$ cm^3, the “Volume … right nostril” value [34] was 2.4 ± 0.2$ cm^3 and the “Volume of the nasal cavity, left nostril” value [35] was 2.8 ± 0.1&$ cm^3. The “Volume … right nostril” value [35] was 2.6 ± 0.2&$ cm^3, the “Volume of the nasal cavity, left nostril” value [36] was 3.3 ± 0.1&$ cm^3 and the “Volume … right nostril” value [36] was 3.3 ± 0.3&$ cm^3. The “Volume of the nasal cavity, left nostril” value [37] was 4.1 ± 0.1& cm^3, the “Volume … right nostril” value [37] was 3.8 ± 0.1& cm^3 and the “Volume of the nasal cavity, left nostril” value [38] was 4.2 ± 0.3& cm^3. For the same compound, the “Volume … right nostril” value [38] was 4.2 ± 0.2& cm^3, the “Volume of the nasal cavity, left nostril” value [39] was 4.2 ± 0.1& cm^3 and the “Volume … right nostril” value [39] was 4.5 ± 0.1& cm^3. For the same compound, the “Volume of the nasal cavity, left nostril” value [40] was 4.3 ± 0.1 cm^3, the “Volume … right nostril” value [40] was 4.5 ± 0.3 cm^3 and the “Volume of the nasal cavity, left nostril” value [41] was 4.3 ± 0.2 cm^3. For the same compound, the “Volume … right nostril” value [41] was 4.2 ± 0.2 cm^3, the “Volume of the nasal cavity, left nostril” value [42] was 2.9 ± 0.1$ cm^3 and the “Volume … right nostril” value [42] was 3.0 ± 0.2$ cm^3. The “Volume of the nasal cavity, left nostril” value [43] was 2.6 ± 0.1$ cm^3, the “Volume … right nostril” value [43] was 2.5 ± 0.1$ cm^3 and the “Volume of the nasal cavity, left nostril” value [44] was 3.7 ± 0.3&$ cm^3. For the same compound, the “Volume … right nostril” value [44] was 3.8 ± 0.1&$ cm^3, the “Volume of the nasal cavity, left nostril” value [45] was 3.8 ± 0.2& cm^3 and the “Volume … right nostril” value [45] was 3.7 ± 0.1&$ cm^3. For the same compound, the “Volume of the nasal cavity, left nostril” value [46] was 3.8 ± 0.1&$ cm^3, the “Volume … right nostril” value [46] was 3.8 ± 0.2&$ cm^3 and the “Volume of the nasal cavity, left nostril” value [47] was 4.2 ± 0.3& cm^3. For the same compound, the “Volume … right nostril” value [47] was 4.2 ± 0.3& cm^3, the “Volume of the nasal cavity, left nostril” value [48] was 3.9 ± 0.2$ cm^3 and the “Volume … right nostril” value [48] was 4.0 ± 0.3^ cm^3. For the same compound, the “Volume of the nasal cavity, left nostril” value [49] was 4.0 ± 0.1$ cm^3, the “Volume … right nostril” value [49] was 4.2 ± 0.3 cm^3 and the “Volume of the nasal cavity, left nostril” value [50] was 4.5 ± 0.1 cm^3. For the same compound, the “Volume … right nostril” value [50] was 4.5 ± 0.3 cm^3, the Tolerance (oral once daily for 14 days, dogs) was “not generated” and the “duration of the effect” value (single oral administration, dogs) was “at least 6 hours”.
